In patent publication US20050245594A1, “Dermal delivery of anti-pain agents and methods useful thereof” (priority 2001, published 2005):
Like-named read-outs stand apart in the source and are kept apart here.

Tests used:
[1] = Crossover PK study: plasma sumatriptan by LC/MS/MS after ID/junctional vs SC administration (Tmax, Cmax, AUC, relative F); type: in vivo, Yucatan miniswine; conditions: for rel. F 10 min / rel. F Total: compared to SC; for Cmax / AUC: minipig, plasma; for AUC: read-out: AUC 10 mm. (converted)
Method: Percent (%) relative Bioavailability (F) for each dosing condition was calculated compared to the SC condition: [formula]

[2] = test system: Yorkshire Swine skin (injection site); conditions: pig, in vivo
Method: A total of 12 Yorkshire Swine (Archer Farms) were used. Each pig received one injection according to a randomization schedule (RS) once a day for a total of nine injections. Animals were not exposed to all possible injection combinations, because of the incomplete block design.
These skin sites were observed immediately upon removal of the device and at 30 minutes, 1, 2, 3, 4, 6, 8 and 24 hours and skin effects documented using the Draize Dermal Irritation method. […] Responder pigs were assigned to the following pig numbers on the randomization table in the following order: 1, 4, 2, 5, 3, and 6.
Syringe based microneedle systems: 30 gauge 1.5 mm ID needle with skin penetration limiter (Lot #E216801); 2 mm ID needle with limiter incorporating a 30 gauge ½ inch length needle with an ID bevel and a skin penetration limiter to allow 2 mm penetration; 3 mm needle with limiter incorporating a 30 gauge ½ inch length needle with a bevel and a skin penetration limiter to allow 3 mm penetration. All syringe based devices were connected to an accurate leur lock (LL) volumetric syringe for measuring the dose volume, and were administered in a bolus injection fashion using manual control of delivery rate.
During the delivery period, the microneedle array is held in place flat against the skin via an integral adhesive ring incorporated on the hub. The catheter hub is also connected via an integral length of medical grade tubing to a Leur inlet, which is in turn connected to a 1 ml syringe as the drug reservoir. The flow rate and delivery volume from the syringe are controlled via a programmable, highly accurate volumetric syringe pump.
Pigs were fasted for 12-18 hours prior to anesthesia. A mixture of Rompun® (2 mg/kg), Telazol® (4 mg/kg), and Ketamine (2 mg/kg) were given IM to sedate. Atropine (0.02 mg/kg) was given IM directly after sedation to avoid excessive salivation. Swine were masked down with Isoflurane if needed during the injection time.
TREATMENT DAY 1: The hair on both flanks of the pig were clipped and the skin wiped clean with chlorohexaderm scrub and alcohol. A clean, unblemished area was selected. Injection was performed according to a randomization schedule.
For 34-gauge catheter set devices, a BD 1 mL LL syringe and a Harvard syringe pump were used to control flow rate (100 μl/min). Devices remained in place for 1 minute following the injection. For 30-gauge syringe system, injections were performed over 50-60 seconds using manual rate control. After injection, photos were taken of skin effects. The skin site was marked with a permanent skin marker for later identification of site. Pigs were recovered in their runs.
TREATMENT DAY 2-9: All steps from Day 1 were repeated on alternate flanks of each pig following a pre-assigned randomization schedule.
The model included a pig effect, time effect, gauge, depth and solution main effects as well as all two-way interactions.

[3] = Yucatan miniswine, 1 × 1.5 mm × 30 g, 0 mg/ml
[4] = Yucatan miniswine, 1 × 2 mm × 30 g, 30 mg/ml
[5] = Yucatan miniswine, 1 × 3 mm × 30 g, 30 mg/ml
[6] = Yucatan miniswine, 3 × 2 mm × 34 g, 30 mg/ml
[7] = Yucatan miniswine, sc, 12 mg/ml
[8] = Yucatan, 3 × 3 mm × 34 g, 12 mg/ml

CNS(=O)(=O)Cc1ccc2[nH]cc(CCN(C)C)c2c1 [sumatriptan, 3-[2-(dimethylamino)ethyl]-N-methyl-indole-5-methanesulfonamide]
AUC total ([1]; 1 × 1.5 mm × 30 g, 0 mg/ml): 27696.167 ng·min/mL | rel. F 10 min ([1]; 1 × 1.5 mm × 30 g, 0 mg/ml): 186.777% | rel. F Total ([1]; 1 × 1.5 mm × 30 g, 0 mg/ml): 117.806% | AUC total ([1]; 1 × 2 mm × 30 g, 30 mg/ml): 23548.167 ng·min/mL | rel. F 10 min ([1]; 1 × 2 mm × 30 g, 30 mg/ml): 165.993% | rel. F Total ([1]; 1 × 2 mm × 30 g, 30 mg/ml): 100.162% | AUC total ([1]; 1 × 3 mm × 30 g, 30 mg/ml): 27335.167 ng·min/mL | rel. F 10 min ([1]; 1 × 3 mm × 30 g, 30 mg/ml): 190.490% | rel. F Total ([1]; 1 × 3 mm × 30 g, 30 mg/ml): 116.270% | AUC total ([1]; 3 × 2 mm × 34 g, 30 mg/ml): 30006.000 ng·min/mL | rel. F 10 min ([1]; 3 × 2 mm × 34 g, 30 mg/ml): 153.272% | rel. F Total ([1]; 3 × 2 mm × 34 g, 30 mg/ml): 127.631% | AUC total ([1]; 3 × 3 mm × 34 g, 12 mg/ml): 25642.833 ng·min/mL | rel. F 10 min ([1]; 3 × 3 mm × 34 g, 12 mg/ml): 116.434% | rel. F Total ([1]; 3 × 3 mm × 34 g, 12 mg/ml): 109.072% | AUC total ([1]; 3 × 3 mm × 34 g, 30 mg/ml): 25947.667 ng·min/mL | rel. F 10 min ([1]; 3 × 3 mm × 34 g, 30 mg/ml): 117.806% | rel. F Total ([1]; 3 × 3 mm × 34 g, 30 mg/ml): 110.369% | AUC total ([1]; IV, 12 mg/ml): 16626.000 ng·min/mL | rel. F 10 min ([1]; IV, 12 mg/ml): 131.820% | rel. F Total ([1]; IV, 12 mg/ml): 70.719% | Maximum concentration levels at early time points ([1]; Intradermal and/or junctional administration vs SC): elevated | AUC total ([1]; SC, 12 mg/ml): 23510.000 ng·min/mL | rel. F 10 min ([1]; SC, 12 mg/ml): 100.000% | rel. F Total ([1]; SC, 12 mg/ml): 100.000% | Cmax [1, 3]: 824 ng/mL | AUC [1, 3]: 84.7 ng·h/mL | Cmax [1, 4]: 849 ng/mL | AUC [1, 4]: 75.2 ng·h/mL | Cmax [1, 5]: 837 ng/mL | AUC [1, 5]: 86.4 ng·h/mL | Cmax [1, 6]: 726 ng/mL | AUC [1, 6]: 69.5 ng·h/mL | Cmax ([1]; Yucatan miniswine, 3 × 3 mm × 34 g, 30 mg/ml): 649 ng/mL | Cmax [1, 7]: 527 ng/mL | AUC [1, 7]: 45.3 ng·h/mL | Cmax [1, 8]: 706 ng/mL | AUC [1, 8]: 52.8 ng·h/mL | AUC ([1]; Yucatan, 3 × 3 mm × 34 g, 30 mg/ml): 53.4 ng·h/mL | Cmax ([1]; Yucatan, iv, 12 mg/ml): 661 ng/mL | AUC ([1]; Yucatan, iv, 12 mg/ml): 59.8 ng·h/mL | Erythema Mean ([2]; 4 h): 0.1 | Erythema Median ([2]; 4 h): 0.2 | Edema Median ([2]; 6 h): 0 | Edema Median ([2]; 8 h): 0 | Edema Mean ([2]; 24 h): 0.0 | Edema Median ([2]; 24 h): 0 | Erythema Mean ([2]; 24 h): 0.0 | Erythema Median ([2]; 24 h): 0.0
